From patent US20140349941A1, “AROMATIC-CATIONIC PEPTIDES AND USES OF SAME” (Cornell University, priority 2011, published 2014)
Entries after “also recorded” stand apart in the source; their conditions may differ.

Assays:
[1] = test system: isolated rat renal kidney mitochondria; assay: Fluorescence quenching of peptide by mitochondria or mitoplasts; format: binding
Experimental: (§1) Maximal fluorescence emission of SS-19 was monitored at 420 nm following excitation at 320 nm using Hitachi F-4500 fluorescence spectrophotometer.
(§2) The quenching by cytochrome c was not displaced by sequential additions of bovine serum albumin (FIG. 22C, A+arrows) (500 μg/ml).

cytochrome c-CL complex [2] = biological target: T1, cytochrome c-CL complex (Homo sapiens, UniProt P99999); assay: Cytochrome c/CL peroxidase activity (amplex red); format: biochemical; settings: figure legend FIG. 29A-C; comparison at a fixed concentration of 10 μM (FIG. 29C)
T1 sequence (P99999 2-105 limits assumed, species assumed, one chain of several): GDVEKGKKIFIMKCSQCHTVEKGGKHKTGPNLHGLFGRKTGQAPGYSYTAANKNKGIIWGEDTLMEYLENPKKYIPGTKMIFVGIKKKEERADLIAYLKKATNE
Description: The six coordination of the heme in cytochrome c prevents direct interaction of H2O2 with the catalytic metal site, and native cytochrome c in solution is a poor peroxidase. Upon interaction with CL, cytochrome c undergoes a structural change with rupture of the Fe-Met80 coordination. […] The mechanism of action of cytochrome c peroxidase is similar to that of other peroxidases, such as horse radish peroxidase (HRP). Thus it is possible to use the amplex red-HRP reaction to investigate cytochrome c peroxidase activity. In the presence of peroxidase, amplex red (AR) reacts with H2O2 to form the red-fluorescent oxidation product, resorufin (Ex/Em=571/585).
Cytochrome c (2 μM) was mixed with CL (25 μg/ml) and 10 μM H2O2 in 20 mM HEPES, pH 7.4. Amplex red (50 μM) was then added and fluorescence emission monitored in real time using Hitachi F4500 fluorescence spectrophotometer. Addition of amplex red elicited rapid increase in fluorescence signal due to resorufin formation, providing direct evidence for peroxidase activity of cytochrome c/CL complex (FIG. 29A).

cytochrome c-CL complex [3] = biological target: T1, cytochrome c-CL complex; assay: Fluorescence spectroscopy of peptide with cytochrome c in the presence of CL; format: binding; settings: peptide 10 μM, CL 50 μg/ml
Experimental: Fluorescence emission of SS-19 (10 μM) was monitored in real time (Ex/Em=320 nm/420 nm) using Hitachi F-4500 fluorescence spectrophotometer. […] CL may potentiate the interaction between SS-19 and cytochrome c by serving as an anionic platform for the two cationic molecules.
The quenching by cytochrome c was not displaced by sequential additions of bovine serum albumin (500 μg/ml) (FIG. 23C, A+arrows).
SS-36 also contains the polarity-sensitive fluorescent amino acid aladan.

[4] = Fluorescence spectroscopy of peptide interaction with cardiolipin; format: binding; settings: peptide 1 μM, CL 5-50 μg/ml
Description: The peptides Dmt-D-Arg-(atn)Dap-Lys-NH2 (SS-19) and Dmt-D-Arg-Phe-Lys-Ald-NH2 (SS-37)cationic peptides carry net positive charge at neutral pH. They are expected to associate with anionic phospholipid cardiolipin based on electrostatic interaction. The interaction of small peptides with lipid membranes can been studied using fluorescence spectroscopy (Surewicz and Epand, 1984). […] Polarity-sensitive fluorescent probes were incorporated into the peptides and fluorescence spectroscopy was used to determine if SS-19, SS-37 and SS-36 interact with CL.
The peptide Dmt-D-Arg-Phe-(atn)Dap-NH2 (SS-19) contains anthraniloyl incorporated into diaminopropionic acid. Anthraniloyl derivatives fluoresce in the 410-420 nm range when excited at 320-330 nm (Hiratsuka T, 1983). The quantum yield of anthraniloyl derivatives is strongly dependent on the local environment, and can increase 5-fold going from water to 80% ethanol, together with a blue shift in the emission maxima (λ max) of <10 nm (Hiratsuka T, 1983). Fluorescence emission spectrum of SS-19 (1 μM) alone, and in the presence of increasing concentrations of CL (5 to 50 μg/ml), was monitored following excitation at 320 nm using Hitachi F-4500 fluorescence spectrophotometer.
The peptide Dmt-D-Arg-Phe-Lys-Ald-NH2 (SS-37) contains an additional amino acid, aladan (Ald), which has been reported to be particularly sensitive to the polarity of its environment and it has been used to probe the electrostatic character of proteins (Cohen et al., 2002). When excited at 350 nm, λmax shifts from 542 nm in water to 409 nm in heptane, accompanied by a significant increase in quantal yield (Cohen et al., 2001). Fluorescence emission spectrum of SS-37 (1 μM) alone, and in the presence of increasing concentrations of CL, was monitored following excitation at 350 nm. Addition of CL (5 to 50 μg/ml) led to a 3-fold increase in quantal yield of SS-37 as well as a clear blue shift in λmax, from 525 nm without CL to 500 nm with 50 μg/ml CL (FIG. 21B).
The peptide Dmt-D-Arg-Ald-Lys-NH2 (SS-36) contains Ald in place Phe^3. Fluorescence emission spectrum of SS-36 (1 μM) alone, and in the presence of increasing concentrations of CL, was monitored following excitation at 350 nm. SS-36 was the most sensitive to the addition of CL, with dramatic increase in quantal yield and blue shift observed with much lower added amounts of CL (1.25 to 5 μg/ml). The λmax shifted from 525 nm without CL to 500 nm with as little as 1.25 μg/ml CL, and quantal yield increased by more than 100-fold with the addition of 5 μg/ml of CL (FIG. 21C).

[5] = biological target: heme environment of cytochrome c (with CL) (Homo sapiens, UniProt P99999); assay: Soret CD spectrum of cyt C in the presence of CL; format: binding; settings: cyt C 10 μM; CL 30 μg/ml; peptide 10 μM; 20 mM HEPES pH 7.5, 25° C.; FIG. 24
Sequence of heme environment of cytochrome c (with CL) (P99999 2-105 limits assumed, species assumed): as the sequence (P99999 2-105 limits assumed, species assumed, one chain of several) above
Experimental: Circular dichroism (CD) was carried out to examine the effects of the peptides on protecting the heme environment of cyt C from the acyl chain of CL. For heme proteins, the Soret CD spectrum is strictly correlated with the heme pocket conformation. In particular, the negative 416-420 nm Cotton effect is considered diagnostic of Fe(III)-Met80 coordination in native cyt C (Santucci and Ascoli, 1997). […] CD spectra were obtained using AVIV CD Spectrometer Model 410.
Changes in the Soret CD spectrum of cyt C (10 μM) were recorded in the absence (dotted line) and presence (dashed line) of 30 μg/ml CL, plus addition of different peptides (10 μM) (solid line) (FIG. 24). CD measurements were carried out using 20 mM HEPES, pH 7.5, at 25° C. and expressed as molar ellipticity (θ) (m Deg).

cytochrome c = assay: Fluorescence quenching of peptide by cytochrome c; format: binding
Experimental: as §1, §2
Fluorescence emission of SS-19 (10 μM) was monitored in real time (Ex/Em=320 nm/420 nm) using Hitachi F-4500 fluorescence spectrophotometer.

[6] = Animal models of ischemia-reperfusion injury, neurodegenerative diseases and metabolic syndrome; format: in vivo; settings: neurodegenerative diseases, metabolic syndrome
[7] = Antioxidant ability: neutralizing reactive species, lipid peroxidation; format: biochemical

Substance | quenching of peptide fluorescence by cytochrome c-depleted mitoplasts ([1]; mitoplasts 0.4 mg, FIG. 22B) | peptide fluorescence on addition of mitochondria ([1]; peptide 10 μM, sequential addition of 0.2 mg mitochondria, FIG. 22A) | peroxidase activity in cytochrome c/CL complex (cytochrome c-CL complex [2]) | peptide fluorescence on addition of cytochrome c in the presence of CL (cytochrome c-CL complex [3]; 2 μM cytochrome c) | peptide fluorescence on addition of CL (cytochrome c-CL complex [3]; FIG. 23B) | increase in quantal yield of peptide fluorescence [4] | shift in λmax on addition of CL ([4]; excitation 320 nm) | disappearance of the negative Cotton effect caused by CL (heme environment of cytochrome c) [5] | displacement of cytochrome c quenching by bovine serum albumin (cytochrome c; BSA 500 μg/ml, FIG. 22C) | dependence of interaction on amount of cytochrome c (cytochrome c; FIG. 22D) | peptide fluorescence on addition of cytochrome c (cytochrome c; peptide 10 μM, 2 μM cytochrome c, no CL) | efficacy in animal models [6] | lipid peroxidation [7] | neutralizing reactive species [7]
Dmt-D-Arg-Phe-(atn)Dap-NH2 [SS-19] | significantly reduced | quenched | preventing peroxidase activity in cytochrome c/CL complex | larger extent of quenching of SS-19 fluorescence | increase in SS-19 fluorescence | 2 fold | no significant shift in λmax | Protect the Heme Environment of Cytochrome C from the Acyl Chain of CL | not displaced | linearly dependent on the amount of cytochrome c added | similarly quenched; also recorded: immediate quenching of the fluorescence signal | – | – | –
D-Arg-2′6′-Dmt-Tyr-Lys-Phe-NH2 | – | – | – | – | – | – | – | – | – | – | – | remarkable efficacy | inhibit lipid peroxidation | can neutralize H2O2, hydroxyl radical, and peroxynitrite
